Structures can show the parent of a compound that is named as a salt. Where two headings read alike, the source gives them in different places. Starred links: 1 amine or outer side, 2 acyl side, 3 side chain; linkers in the order of their positions; H or OH if unused. Positions of bridges follow the written chain, without caps; N, C: chain ends. Non-standard residues stand in square brackets, D forms with d. Residues, ends and D or L forms follow the SMILES beside them. *: point of attachment. hTyr(3S-OH,4S-OH,3'-OSO3H) = N[C@H](C(=O)O)[C@H](O)[C@@H](O)c1ccc(O)c(OS(=O)(=O)O)c1; Orn(4R-OH,5R-OH) = O=C([C@H](C[C@@H](O)[C@@H](O)N[*:3])N[*:1])[*:2]; Pro(3S-OH,4S-Me) = C[C@H]1CN[C@H](C(=O)O)[C@H]1O; X1 = CCCCCOc1ccc(-c2cc(-c3ccc(C(=O)*)cc3)no2)cc1; Gln(3R-OH) = NC(=O)C[C@@H](O)[C@H](N)C(=O)O; Hyp = O=C(O)[C@@H]1C[C@@H](O)CN1
Columns and labels:
Format in all cases: biochemical
recombinant PRL-1 = biological target: T1, recombinant PRL-1 (Homo sapiens, UniProt Q93096); test: In vitro phosphatase assay (DiFMUP hydrolysis), PRL-1; also: test concentration or dose not given here
T1 construct: 6xHis (N, cleaved yes); made in house; host or cells: E. coli One Shot BL21 Star
T1 sequence (Q93096 1-173): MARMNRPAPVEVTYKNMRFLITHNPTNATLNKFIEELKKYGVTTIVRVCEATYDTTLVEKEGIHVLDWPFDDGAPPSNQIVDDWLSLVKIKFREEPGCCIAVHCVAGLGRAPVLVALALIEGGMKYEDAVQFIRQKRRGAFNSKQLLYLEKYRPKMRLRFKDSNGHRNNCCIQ

recombinant PRL-3 = biological target: T2, recombinant PRL-3 (Homo sapiens, UniProt O75365); test: In vitro phosphatase assay (DiFMUP hydrolysis), PRL-3; also: test concentration or dose not given here
T2 construct: 6xHis (N, cleaved yes); made in house; host or cells: E. coli One Shot BL21 Star

recombinant PRL-2 = biological target: T3, recombinant PRL-2 (Homo sapiens, UniProt Q12974); test: In vitro phosphatase assay (DiFMUP hydrolysis), PRL-2;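 also: PRL-2 activity read as DiFMUP hydrolysis after 20 min at room temperature with drug, enzyme first pre-reduced at 4 °C for 20 min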
T3 construct: 6xHis (N, cleaved yes); made in house; host or cells: E. coli One Shot BL21 Star
T3 sequence (Q12974 1-167): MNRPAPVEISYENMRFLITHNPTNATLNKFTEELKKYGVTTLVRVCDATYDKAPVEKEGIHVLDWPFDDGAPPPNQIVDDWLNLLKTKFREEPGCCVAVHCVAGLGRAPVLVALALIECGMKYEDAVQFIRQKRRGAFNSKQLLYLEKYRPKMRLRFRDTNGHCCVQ

[1] = FDA-approved drug screen, compared to DMSO

T2 sequence (O75365 whole entry): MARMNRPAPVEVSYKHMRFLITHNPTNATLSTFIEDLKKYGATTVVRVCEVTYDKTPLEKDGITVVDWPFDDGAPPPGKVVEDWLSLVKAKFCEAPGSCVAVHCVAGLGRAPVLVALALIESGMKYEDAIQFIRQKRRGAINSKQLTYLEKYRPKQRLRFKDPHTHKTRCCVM

| Structure (SMILES) | % Phosphatase Activity (compared to DMSO) PRL-1 (recombinant PRL-1; [1]) | % Phosphatase Activity (compared to DMSO) PRL-3 (recombinant PRL-3; [1]) | % Phosphatase Activity (compared to DMSO) PRL-2 (recombinant PRL-2; [1]) | % Phosphatase Activity (compared to DMSO) PRL-1 (recombinant PRL-1) | % Phosphatase Activity (compared to DMSO) PRL-3 (recombinant PRL-3) | % Phosphatase Activity (compared to DMSO) PRL-2 (recombinant PRL-2) |
| --- | --- | --- | --- | --- | --- | --- |
| C[N+]1(C)[C@@H]2C[C@@H](OC(=O)[C@H](CO)c3ccccc3)C[C@H]1[C@@H]1O[C@@H]12 [Methscopolamine] | 86% | 88% | 107% | – | – | – |
| CN1C(CCl)Nc2cc(Cl)c(S(N)(=O)=O)cc2S1(=O)=O (stereo not drawn) [Methyclothiazide] | 100% | 62% | 114% | – | – | – |
| C[C@](N)(Cc1ccc(O)c(O)c1)C(=O)O [Methyldopa] | 98% | 70% | 95% | – | – | – |
| CN(C)c1ccc2nc3ccc(=[N+](C)C)cc-3sc2c1 [Methylene Blue] | 55% | 45% | 72% | – | – | – |
| C[C@H]1C[C@@H]2[C@H]([C@@H](O)C[C@@]3(C)[C@H]2CC[C@]3(O)C(=O)CO)[C@@]2(C)C=CC(=O)C=C12 [Methylprednisolone] | 90% | 92% | 95% | – | – | – |
| Cc1cc(=O)[nH]c(=S)[nH]1 [Methylthiouracil] | 110% | 75% | 93% | – | – | – |
| Cc1cc2c(cc1S(N)(=O)=O)S(=O)(=O)CCC2 [Meticrane] | 104% | 83% | 94% | – | – | – |
| CCN(CC)CCNC(=O)c1cc(Cl)c(N)cc1OC.Cl [MetoclopraMide HCl] | 97% | 75% | 84% | – | – | – |
| Cc1ccccc1N1C(=O)c2cc(S(N)(=O)=O)c(Cl)cc2NC1C (stereo not drawn) [Metolazone] | 144% | 121% | 163% | – | – | – |
| COCCc1ccc(OCC(O)CNC(C)C)cc1 (stereo not drawn) [Metoprolol Tartrate] | 89% | 98% | 109% | – | – | – |
| Cc1ncc([N+](=O)[O-])n1CCO [Metronidazole] | 89% | 87% | 92% | – | – | – |
| CC[C@H](C)C(=O)O[C@H]1CCC=C2C=C[C@H](C)[C@H](CC[C@@H]3C[C@@H](O)CC(=O)O3)[C@H]21 [Mevastatin] | 88% | 71% | 89% | – | – | – |
| Cc1cccc(C)c1OCC(C)N (stereo not drawn) [Mexiletine HCl] | – | – | – | 98% | 78% | 106% |
| CC1(C)S[C@@H]2[C@H](NC(=O)[C@H](NC(=O)N3CCN(S(C)(=O)=O)C3=O)c3ccccc3)C(=O)N2[C@H]1C(=O)O [Mezlocillin Sodium] | 92% | 67% | 91% | – | – | – |
| CN1CCN2c3ccccc3Cc3ccccc3C2C1 (stereo not drawn) [Mianserin HCl] | 95% | 59% | 99% | – | – | – |
| CCCCCOc1ccc(-c2cc(-c3ccc(C(=O)N[C@H]4C[C@@H](O)[C@@H](O)NC(=O)[C@@H]5[C@@H](O)[C@@H](C)CN5C(=O)[C@H]([C@H](O)CC(N)=O)NC(=O)[C@H]([C@H](O)[C@@H](O)c5ccc(O)c(OS(=O)(=O)[O-])c5)NC(=O)[C@@H]5C[C@@H](O)CN5C(=O)[C@H]([C@@H](C)O)NC4=O)cc3)no2)cc1.[Na+] [Micafungin Sodium] (X1-[Orn(4R-OH,5R-OH)]T[Hyp][hTyr(3S-OH,4S-OH,3'-OSO3H)][Gln(3R-OH)][Pro(3S-OH,4S-Me)]; lactam 1-C) | 74% | 49% | 90% | – | – | – |
| Clc1ccc(COC(Cn2ccnc2)c2ccc(Cl)cc2Cl)c(Cl)c1 (stereo not drawn) [Miconazole Nitrate] | 98% | 92% | 93% | – | – | – |
| Clc1ccc(COC(Cn2ccnc2)c2ccc(Cl)cc2Cl)c(Cl)c1 (stereo not drawn) [Miconazole] | 109% | 86% | 101% | – | – | – |
| CC#C[C@]1(O)CC[C@H]2[C@@H]3CCC4=CC(=O)CCC4=C3[C@@H](c3ccc(N(C)C)cc3)C[C@@]21C [Mifepristone] | 96% | 95% | 135% | – | – | – |
| OCCN1C[C@H](O)[C@@H](O)[C@H](O)[C@H]1CO [Miglitol] | 114% | 88% | 120% | – | – | – |

| Structure (SMILES) | % Phosphatase Activity (compared to DMSO) PRL-1 (recombinant PRL-1; [1]) | % Phosphatase Activity (compared to DMSO) PRL-3 (recombinant PRL-3; [1]) | % Phosphatase Activity (compared to DMSO) PRL-2 (recombinant PRL-2; [1]) | % Phosphatase Activity (compared to DMSO) PRL-1 (recombinant PRL-1) | % Phosphatase Activity (compared to DMSO) PRL-3 (recombinant PRL-3) | % Phosphatase Activity (compared to DMSO) PRL-2 (recombinant PRL-2) |
| --- | --- | --- | --- | --- | --- | --- |
| CCN(CC)C(=O)C1(c2ccccc2)CC1CN.Cl (stereo not drawn) [Milnacipran HCl] | 114% | 80% | 107% | – | – | – |
| Cc1[nH]c(=O)c(C#N)cc1-c1ccncc1 [Milrinone] | 98% | 83% | 110% | – | – | – |
| CCCCCCCCCCCCCCCCOP(=O)([O-])OCC[N+](C)(C)C [Miltefosine] | 92% | 122% | 94% | – | – | – |
| CN(C)c1ccc(O)c2c1C[C@H]1C[C@H]3[C@H](N(C)C)C(O)=C(C(N)=O)C(=O)[C@@]3(O)C(O)=C1C2=O [Minocycline HCl] | 84% | 104% | 70% | – | – | – |
| Nc1nc(CC(=O)Nc2ccc(CCNC[C@H](O)c3ccccc3)cc2)cs1 [Mirabegron] | 104% | 88% | 113% | – | – | – |
| CN1CCN2c3ncccc3Cc3ccccc3C2C1 (stereo not drawn) [Mirtazapine] | 92% | 98% | 114% | – | – | – |
| CO[C@@]12[C@H](COC(N)=O)C3=C(C(=O)C(C)=C(N)C3=O)N1C[C@@H]1N[C@@H]12 [Mitomycin C] | 68% | 64% | 54% | – | – | – |
| Clc1ccc(C(c2ccccc2Cl)C(Cl)Cl)cc1 (stereo not drawn) [Mitotane] | 98% | 103% | 93% | – | – | – |
| O=C1c2c(O)ccc(O)c2C(=O)c2c(NCCNCCO)ccc(NCCNCCO)c21 [Mitoxantrone HCl] | 74% | 61% | 76% | – | – | – |
| NC(=O)c1ncn([C@@H]2O[C@H](CO)[C@@H](O)[C@H]2O)c1O [Mizoribine] | 93% | 85% | 78% | – | – | – |
| Nc1ccccc1NC(=O)c1ccc(CNc2nccc(-c3cccnc3)n2)cc1 [Mocetinostat (MGCD0103)] | 98% | 84% | 108% | – | – | – |
| NC(=O)C[S+]([O-])C(c1ccccc1)c1ccccc1 (stereo not drawn) [Modafinil] | 91% | 82% | 92% | – | – | – |
| CCOC(=O)[C@H](CCc1ccccc1)N[C@@H](C)C(=O)N1Cc2cc(OC)c(OC)cc2C[C@H]1C(=O)O [Moexipril HCl] | 103% | 83% | 98% | – | – | – |
| CCOC(=O)CC(=O)N1CCSC1COc1ccccc1OC (stereo not drawn) [Moguisteine] | 104% | 87% | 98% | – | – | – |
| O=c1c(-n2ccnn2)c[nH]n1-c1cc(N2CCOCC2)ncn1 [Molidustat (BAY 85-3934)] | 90% | 84% | 74% | – | – | – |
| CCOC(=O)[N-]c1cn(N2CCOCC2)n[o+]1 [Molsidomine] | 99% | 79% | 110% | – | – | – |
| C[C@@H]1C[C@H]2[C@@H]3CCC4=CC(=O)C=C[C@]4(C)[C@@]3(Cl)[C@@H](O)C[C@]2(C)[C@@]1(OC(=O)c1ccco1)C(=O)CCl [Mometasone furoate] | 85% | 77% | 87% | – | – | – |
| Oc1ccc(OCc2ccccc2)cc1 [Monobenzone] | 105% | 72% | 112% | – | – | – |
| CC(C)(O)c1ccccc1CC[C@@H](SCC1(CC(=O)O)CC1)c1cccc(/C=C/c2ccc3ccc(Cl)cc3n2)c1 [Montelukast Sodium] | 172% | 182% | 161% | – | – | – |

From paper PMC8119466, “A screen of FDA-approved drugs identifies inhibitors of protein tyrosine phosphatase 4A3 (PTP4A3 or PRL-3)” (Scientific Reports, 2021)
